This is an account of results in ChEMBL document CHEMBL5725801, “Fused heterocyclic compounds as CaM kinase inhibitors” (2018).

pEC50: −log10 of the molar value.

This experiment in a line: CaMKII Cell-Based Activity: CaMKII activity in neonatal rat ventricular myocytes (NRVM) was measured by monitoring the phosphorylation level of phospholamban using high-content imaging. NRVMs were plated in a clear bottom 384-well plate in medium supplemented with 10% fetal bovine serum (FBS) and incubated at 37° C., 5% CO2 overnight. The medium was changed to a serum-free medium and compounds were dosed to the cells. The cells were incubated at 37° C., 5% CO2 for 4 hours and were then treated with 100 nM ATX-II (Alomone Labs) to activate CaMKII. 10 minutes after the addition of ATX-II, the cells were fixed with 4% formaldehyde followed by permeabilization with 0.1% triton X100. The fixed cells were stained with an anti-phospho-phospholamban primary antibody (Santa Cruz Biotechnology) and an Alexa488-labeled anti-rabbit IgG secondary antibody (Life Technologies Corporation) as well as Hoechst 33342 (Life Technologies Corporation). The cells were imaged using an ArrayScan VTI (Cellomics) and analyzed for cells containing a positive fluorescent signal at 485 nm, reported as % responder. The % responders were plotted against the compound concentration to determine the compounds EC50.
`CCN(CC)[C@@H](C)CNC(=O)c1cc(NC2COC2)nc(-c2cnn3ccc(-c4cccs4)nc23)c1`: the pEC50 – broadly, the EC50 on a negative log10 scale, so that one unit is a factor of ten – is 5.14.

On to `CCC(=O)Nc1cc(C(=O)NC[C@H](C)N(CC)CC)cc(-c2cnn3ccc(-c4cccs4)nc23)n1`, for which the pEC50 was 7.31.

Turning to `CCN(CC)[C@@H](C)CNC(=O)c1cc(-c2cnn3ccc(-c4cccs4)nc23)nc(N2CC(O)(CC)C2)c1`, the negative-log EC50 (pEC50) is 7.61.

With `CCN(CC)[C@@H](C)CNC(=O)c1cc(-c2cnn3ccc(-c4cccs4)nc23)nc(N2CC(NC(=O)N(C)C)C2)c1`, the pEC50 was 7.65.

On to `CCN(CC)[C@@H](C)CNC(=O)c1cc(-c2cnn3ccc(-c4cccs4)nc23)nc(N2CC(NS(C)(=O)=O)C2)c1`, for which the negative logarithm of the EC50 (pEC50) is 7.58.

`CCOC(=O)Nc1cc(C(=O)NC[C@H](C)N(CC)CC)cc(-c2cnn3ccc(-c4cccs4)nc23)n1` gave a negative-log EC50 (pEC50) of 6.84.

The compound `CCN(CC)[C@@H](C)CNC(=O)c1cc(-c2cnn3ccc(-c4cccs4)nc23)nc(N2CCN(C(C)=O)CC2)c1` gave a negative-log EC50 (pEC50) of 7.36.

In the case of `CCN(CC)[C@@H](C)CNC(=O)c1cc(NCC2(C)COC2)nc(-c2cnn3ccc(-c4cccs4)nc23)c1`, the pEC50 is 7.63. This pEC50 is 0.27 log units higher than that of the compound before.

Compound `CCN(CC)[C@@H](C)CNC(=O)c1cc(-c2cnn3ccc(-c4cccs4)nc23)nc(N2CC(CO)C2)c1` gave a negative-log EC50 (pEC50) of 7.67.

As to `CCN(CC)[C@@H](C)CNC(=O)c1cc(-c2cnn3ccc(-c4cccs4)nc23)nc(N2CC(NC(=O)C3CC3)C2)c1`, the pEC50 was 8.43.

Compound `CCN(CC)[C@@H](C)CNC(=O)c1cc(N[C@H]2CCOC2)nc(-c2cnn3ccc(-c4cccs4)nc23)c1` showed a pEC50 of 7.52.

Regarding `CCN(CC)[C@@H](C)CNC(=O)c1cc(NC(=O)C2CC2)nc(-c2cnn3ccc(-c4cccs4)nc23)c1`, the pEC50 is 7.56.

Consider `CCN(CC)[C@@H](C)CNC(=O)c1cc(NC(=O)OC(C)C)nc(-c2cnn3ccc(-c4cccs4)nc23)c1`, for which the negative-log EC50 (pEC50) is 7.40.

`CCN(CC)[C@@H](C)CNC(=O)c1cc(NCc2cc[nH]n2)nc(-c2cnn3ccc(-c4cccs4)nc23)c1`: the pEC50 is 7.27.

For `CCN(CC)[C@@H](C)CNC(=O)c1cc(N[C@H](C)CO)nc(-c2cnn3ccc(-c4cccs4)nc23)c1`, the negative-log EC50 (pEC50) was 7.12.

`CCN(CC)[C@@H](C)CNC(=O)c1cc(-c2cnn3ccc(-c4cccs4)nc23)nc(N2CC(NC)C2)c1` showed a pEC50 of 7.16. This pEC50 and that of the compound before are within 0.2 log units of each other.

The compound `CCN(CC)[C@@H](C)CNC(=O)c1cc(N[C@@H](C)CO)nc(-c2cnn3ccc(-c4cccs4)nc23)c1` showed a pEC50 of 7.47.

For the compound `CCN(CC)[C@@H](C)CNC(=O)c1cc(-c2cnn3ccc(-c4cccs4)nc23)nc(N2CC(C(N)=O)C2)c1`, the pEC50 is 7.15. Against the preceding compound, the pEC50 is 0.32 log units lower.

As for `CCN(CC)[C@@H](C)CNC(=O)c1cc(NC2CC2)nc(-c2cnn3ccc(-c4cccs4)nc23)c1`, the negative-log EC50 (pEC50) is 7.51. This pEC50 is 0.36 log units higher than that of the compound before.

The compound `CCN(CC)[C@@H](C)CNC(=O)c1cc(NCC2COC2)nc(-c2cnn3ccc(-c4cccs4)nc23)c1` had a negative logarithm of the EC50 (pEC50) of 4.87.

In the case of `CCN(CC)[C@@H](C)CNC(=O)c1cc(-c2cnn3ccc(-c4cccs4)nc23)nc(N2CCNCC2)c1`, the pEC50 was 7.17.

Regarding `CCN(CC)[C@@H](C)CNC(=O)c1cc(-c2cnn3ccc(-c4cccs4)nc23)nc(N2CCNC2=O)c1`, the pEC50 is 6.82. Compared with the last compound, the pEC50 is 0.35 log units lower.

Regarding `CCN(CC)[C@@H](C)CNC(=O)c1cc(NC[C@@H](C)O)nc(-c2cnn3ccc(-c4cccs4)nc23)c1`, the negative-log EC50 (pEC50) was 7.49.

Compound `CCN(CC)[C@@H](C)CNC(=O)c1cc(-c2cnn3ccc(-c4cccs4)nc23)nc(N2CC(C(C)(C)O)C2)c1` gave a pEC50 of 7.24.

Turning to `CCN(CC)[C@@H](C)CNC(=O)c1cc(NC(=O)C(C)C)nc(-c2cnn3ccc(-c4cccs4)nc23)c1`, the pEC50 was 7.69.

`CCN(CC)[C@@H](C)CNC(=O)c1cc(-c2cnn3ccc(-c4cccs4)nc23)nc(N2CC(N(C)C)C2)c1` had a pEC50 of 6.77.

Take `CCN(CC)[C@@H](C)CNC(=O)c1cc(NC[C@H](C)O)nc(-c2cnn3ccc(-c4cccs4)nc23)c1`: the pEC50 was 7.57.

For the compound `CCN(CC)[C@@H](C)CNC(=O)c1cc(-c2cnn3ccc(-c4cccs4)nc23)nc(N2CC(NC(C)=O)C2)c1`, the pEC50 is 7.55.
